{"source": "patent US8158657B2", "about": "“Heterocycles substituted pyridine derivatives and antifungal agent containing thereof” (Eisai R&D Management Co., Ltd., priority 2005, dated 2012)", "key": {"[1]": {"system": "C. albicans E81022 strain", "test": "Experimental systemic candidal infection model in mice", "format": "in vivo", "details": "peroral, 3 times every 4 hours, female ICR mice, observed until 14 days after infection", "method": "A standing culture of C. albicans E81022 strain was carried out for 48 hours at 30° C. in sabouraud dextrose agar medium (SDA), the recovered fungal cells were suspended in sterilized physiological saline. By counting the fungal number on cytometry plate, the suspension was diluted to 2×10^7 cells/mL with sterilized physiological saline to serve fungal inoculum.\nThe fungal inoculum was used in the amounts of 0.2 mL to inoculate 4.5 to 5.5 week-old female ICR mice in the tail vein (4×10^6 cells/mouse).\nFrom 0.5 to 1 hour after fungal inoculation, 0.2 mL of agent solution (dissolved or suspended in sterilized physiological saline containing 6.5% dimethyl sulfoxide and 3.5% Tween 80) was administered into the stomach using a peroral probe, 3 times every 4 hours. The agent concentration was 2.5 mg/kg or 10 mg/kg, and the number of animals in one group was 5 animals.\nThe protective effect was determined by observing life/death until 14 days after infection and calculating the mean survival days."}, "[2]": {"system": "A. fumigatus Tsukuba strain", "test": "Anti-Aspergillus activity, MIC measurement", "format": "cell-based", "details": "RPMI1640, 42-48 hours at 35° C., visual inspection, read-out: Anti-Aspergillus Activity (minimum inhibitory concentration, MIC)", "summary_of_the_method": "(§1)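 C. albicans CAF2-1 was grown 48 h at 30° C. in SDB and diluted in RPMI1640 to 1.2×10^3 cells/mL. Frozen A. fumigatus Tsukuba was diluted to 4.5×10^3 cells/mL. Compounds, two-fold serially diluted in DMSO from 2.5 mg/mL, were cultured aerobically with fungi for 42-48 h at 35° C.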"}, "[3]": {"system": "C. albicans CAF2-1 strain", "test": "Anti-Candida activity, MIC measurement", "format": "cell-based", "details": "CAF21STRAIN, C. albicans CAF2-1, RPMI1640, 42-48 hours at 35° C., visual inspection, read-out: Anti-Candida Activity (minimum inhibitory concentration, MIC)", "summary_of_the_method": "as §1"}}}
{"smiles": "Nc1ccc(-c2cc(Cc3ccc(OCc4cccc(F)n4)cc3)no2)c(N)n1", "note": "[Example 104, 3-(3-(4-(6-Fluoro-pyridin-2-ylmethoxy)-benzyl)-isoxazol-5-yl)-pyridin-2,6-diamine]", "values": [{"measurement": "Mean Survival Days", "setting": "[1]; 2.5 mg/kg", "result": 8.2, "unit": "days"}, {"measurement": "Mean Survival Days", "setting": "[1]; 10 mg/kg", "result": 13.2, "unit": "days"}, {"measurement": "MIC", "setting": "[2]", "result": 0.78, "unit": "µg/mL"}, {"measurement": "MIC", "setting": "[3]", "result": 0.78, "unit": "µg/mL"}]}
{"smiles": "Cc1ccc(Cc2ccc(Cc3cc(-c4ccc(N)nc4N)on3)cc2)o1", "note": "[Example 105, 3-(3-(4-(5-Methyl-furan-2-ylmethyl)-benzyl)-isoxazol-5-yl)-pyridin-2,6-diamine]", "values": [{"measurement": "Mean Survival Days", "setting": "[1]; 2.5 mg/kg", "result": 5.4, "unit": "days"}, {"measurement": "Mean Survival Days", "setting": "[1]; 10 mg/kg", "result": 12.8, "unit": "days"}, {"measurement": "MIC", "setting": "[2]", "result": 0.2, "unit": "µg/mL"}, {"measurement": "MIC", "setting": "[3]", "result": 0.2, "unit": "µg/mL"}]}
{"smiles": "Nc1ccc(-c2cc(Cc3ccc(OCc4cc(Cl)ccn4)cc3)no2)c(N)n1", "note": "[Example 109, 3-(3-(4-(4-Chloro-pyridin-2-ylmethoxy)-benzyl)-isoxazol-5-yl)-pyridin-2,6-diamine]", "values": [{"measurement": "Mean Survival Days", "setting": "[1]; 2.5 mg/kg", "result": 11.0, "unit": "days"}, {"measurement": "Mean Survival Days", "setting": "[1]; 10 mg/kg", "result": 11.8, "unit": "days"}, {"measurement": "MIC", "setting": "[2]", "result": 0.78, "unit": "µg/mL"}, {"measurement": "MIC", "setting": "[3]", "result": 0.39, "unit": "µg/mL"}]}
{"smiles": "Nc1ccc(-c2cc(Cc3ccc(OCc4cccc(Cl)n4)cc3)no2)c(N)n1", "note": "[Example 110, 3-(3-(4-(6-Chloro-pyridin-2-ylmethoxy)-benzyl)-isoxazol-5-yl)-pyridin-2,6-diamine]", "values": [{"measurement": "Mean Survival Days", "setting": "[1]; 2.5 mg/kg", "result": 12.0, "unit": "days"}, {"measurement": "MIC", "setting": "[2]", "result": 0.78, "unit": "µg/mL"}, {"measurement": "MIC", "setting": "[3]", "result": 0.78, "unit": "µg/mL"}]}
{"smiles": "Nc1ccc(-c2cc(Cc3ccc(COc4ccccc4)nc3)no2)c(N)n1", "note": "[Example 111, 3-(3-(6-Phenoxymethyl-pyridin-3-ylmethyl)-isoxazol-5-yl)-pyridin-2,6-diamine]", "values": [{"measurement": "Mean Survival Days", "setting": "[1]; 2.5 mg/kg", "result": 13.6, "unit": "days"}, {"measurement": "MIC", "setting": "[2]", "result": 0.78, "unit": "µg/mL"}, {"measurement": "MIC", "setting": "[3]", "result": 0.39, "unit": "µg/mL"}]}
{"smiles": "Nc1ccc(-c2cc(Cc3ccc(OCc4ccc(F)cn4)cc3)no2)c(N)n1", "note": "[Example 112, 3-(3-(4-(5-Fluoro-pyridin-2-ylmethoxy)-benzyl)-isoxazol-5-yl)-pyridin-2,6-diamine]", "values": [{"measurement": "Mean Survival Days", "setting": "[1]; 10 mg/kg", "result": 12.2, "unit": "days"}, {"measurement": "MIC", "setting": "[2]", "result": 0.39, "unit": "µg/mL"}, {"measurement": "MIC", "setting": "[3]", "result": 0.78, "unit": "µg/mL"}]}
{"smiles": "Nc1ccc(-c2cc(Cc3ccn(Cc4ccccc4)c3)no2)c(N)n1", "note": "[Example 115, 3-(3-(1-Benzyl-1H-pyrrol-3-ylmethyl)-isoxazol-5-yl)-pyridin-2,6-diamine]", "values": [{"measurement": "Mean Survival Days", "setting": "[1]; 2.5 mg/kg", "result": 10.8, "unit": "days"}, {"measurement": "Mean Survival Days", "setting": "[1]; 10 mg/kg", "result": 13.2, "unit": "days"}, {"measurement": "MIC", "setting": "[2]", "result": 0.2, "unit": "µg/mL"}, {"measurement": "MIC", "setting": "[3]", "result": 0.1, "unit": "µg/mL"}]}
{"smiles": "Nc1ccc(-c2cc(Cc3ccc(OCc4ccc(F)cc4)nc3)no2)c(N)n1", "note": "[Example 116, 3-(3-(6-(4-Fluoro-benzyloxy)-pyridin-3-ylmethyl)-isoxazol-5-yl)-pyridin-2,6-diamine]", "values": [{"measurement": "Mean Survival Days", "setting": "[1]; 2.5 mg/kg", "result": 4.6, "unit": "days"}, {"measurement": "Mean Survival Days", "setting": "[1]; 10 mg/kg", "result": 12.6, "unit": "days"}, {"measurement": "MIC", "setting": "[2]", "result": 0.2, "unit": "µg/mL"}, {"measurement": "MIC", "setting": "[3]", "result": 0.78, "unit": "µg/mL"}]}
{"smiles": "Nc1ccc(-c2cc(Cc3ccc(Cc4ccc(Cl)o4)cc3)no2)c(N)n1", "note": "[Example 120, 3-(3-(4-(5-Chloro-furan-2-ylmethyl)-benzyl)-isoxazol-5-yl)-pyridin-2,6-diamine]", "values": [{"measurement": "Mean Survival Days", "setting": "[1]; 2.5 mg/kg", "result": 3.2, "unit": "days"}, {"measurement": "Mean Survival Days", "setting": "[1]; 10 mg/kg", "result": 13.4, "unit": "days"}, {"measurement": "MIC", "setting": "[2]", "result": 0.2, "unit": "µg/mL"}, {"measurement": "MIC", "setting": "[3]", "result": 0.39, "unit": "µg/mL"}]}
{"smiles": "Nc1ccc(-c2cc(Cc3ccc(Oc4cccc(F)c4)nc3)no2)c(N)n1", "note": "[Example 131, 3-(3-(6-(3-Fluoro-phenoxy)-pyridin-3-ylmethyl)-isoxazol-5-yl)-pyridin-2,6-diamine]", "values": [{"measurement": "Mean Survival Days", "setting": "[1]; 2.5 mg/kg", "result": 12.6, "unit": "days"}, {"measurement": "Mean Survival Days", "setting": "[1]; 10 mg/kg", "result": 12.8, "unit": "days"}, {"measurement": "MIC", "setting": "[2]", "result": 0.2, "unit": "µg/mL"}, {"measurement": "MIC", "setting": "[3]", "result": 0.2, "unit": "µg/mL"}]}
{"smiles": "Nc1ccc(-c2cc(Cc3ccc(CNc4ccccc4)cc3)no2)c(N)n1", "note": "[Example 133, 3-(3-(4-Phenylaminomethyl-benzyl)-isoxazol-5-yl)-pyridin-2,6-diamine]", "values": [{"measurement": "Mean Survival Days", "setting": "[1]; 2.5 mg/kg", "result": 7.0, "unit": "days"}, {"measurement": "Mean Survival Days", "setting": "[1]; 10 mg/kg", "result": 13.4, "unit": "days"}, {"measurement": "MIC", "setting": "[2]", "result": 0.39, "unit": "µg/mL"}, {"measurement": "MIC", "setting": "[3]", "result": 0.2, "unit": "µg/mL"}]}
{"smiles": "Nc1ccc(-c2cc(Cc3ccc(Oc4ccc(F)cc4)nc3)no2)c(N)n1", "note": "[Example 135, 3-(3-(6-(4-Fluoro-phenoxy)-pyridin-3-ylmethyl)-isoxazol-5-yl)-pyridin-2,6-diamine]", "values": [{"measurement": "Mean Survival Days", "setting": "[1]; 2.5 mg/kg", "result": 11.0, "unit": "days"}, {"measurement": "Mean Survival Days", "setting": "[1]; 10 mg/kg", "result": 13.4, "unit": "days"}, {"measurement": "MIC", "setting": "[2]", "result": 0.39, "unit": "µg/mL"}, {"measurement": "MIC", "setting": "[3]", "result": 0.78, "unit": "µg/mL"}]}
{"smiles": "Nc1ccc(-c2cc(Cc3ccc(OCc4nccs4)cc3)no2)c(N)n1", "note": "[Example 151, 3-(3-(4-(Thiazol-2-ylmethoxy)-benzyl)-isoxazol-5-yl)-pyridin-2,6-diamine]", "values": [{"measurement": "Mean Survival Days", "setting": "[1]; 2.5 mg/kg", "result": 7.0, "unit": "days"}, {"measurement": "Mean Survival Days", "setting": "[1]; 10 mg/kg", "result": 14.0, "unit": "days"}, {"measurement": "MIC", "setting": "[2]", "result": 0.39, "unit": "µg/mL"}, {"measurement": "MIC", "setting": "[3]", "result": 0.78, "unit": "µg/mL"}]}
{"smiles": "Nc1ccc(-c2cc(Cc3ccc(Oc4ccc(F)cc4)s3)no2)c(N)n1", "note": "[Example 155]", "values": [{"measurement": "Mean Survival Days", "setting": "[1]; 2.5 mg/kg", "result": 10.4, "unit": "days"}, {"measurement": "Mean Survival Days", "setting": "[1]; 10 mg/kg", "result": 13.0, "unit": "days"}, {"measurement": "MIC", "setting": "[2]", "result": 0.1, "unit": "µg/mL"}, {"measurement": "MIC", "setting": "[3]", "result": 0.1, "unit": "µg/mL"}]}
{"smiles": "COCc1ccc(-c2cc(Cc3ccc(OCc4ccccn4)cc3)no2)c(N)n1", "note": "[Example 166, 6-Methoxymethyl-3-(3-(4-(pyridin-2-ylmethoxy)-benzyl)-isoxazol-5-yl)pyridin-2-ylamine]", "values": [{"measurement": "Mean Survival Days", "setting": "[1]; 2.5 mg/kg", "result": 3.4, "unit": "days"}, {"measurement": "Mean Survival Days", "setting": "[1]; 10 mg/kg", "result": 12.4, "unit": "days"}, {"measurement": "MIC", "setting": "[2]", "result": 0.78, "unit": "µg/mL"}, {"measurement": "MIC", "setting": "[3]", "result": 0.39, "unit": "µg/mL"}]}
{"smiles": "Cc1ccc(-c2cc(Cc3ccc(COc4ccccn4)cc3)no2)c(N)n1", "note": "[Example 171]", "values": [{"measurement": "Mean Survival Days", "setting": "[1]; 2.5 mg/kg", "result": 8.4, "unit": "days"}, {"measurement": "Mean Survival Days", "setting": "[1]; 10 mg/kg", "result": 12.6, "unit": "days"}, {"measurement": "MIC", "setting": "[2]", "result": 0.39, "unit": "µg/mL"}, {"measurement": "MIC", "setting": "[3]", "result": 0.2, "unit": "µg/mL"}]}
{"smiles": "Nc1ccc(-c2cc(Cc3ccc(COc4ccccn4)cc3)no2)cn1", "note": "[Example 176]", "values": [{"measurement": "Mean Survival Days", "setting": "[1]; 2.5 mg/kg", "result": 12.6, "unit": "days"}, {"measurement": "Mean Survival Days", "setting": "[1]; 10 mg/kg", "result": 13.4, "unit": "days"}, {"measurement": "MIC", "setting": "[2]", "result": 0.2, "unit": "µg/mL"}, {"measurement": "MIC", "setting": "[3]", "result": 0.2, "unit": "µg/mL"}]}
{"smiles": "Nc1ncccc1-c1cnn(Cc2ccc(OCc3ccccn3)cc2)c1", "note": "[Example 192, 3-(1-(4-(Pyridin-2-ylmethoxy)-benzyl)-1H-pyrazol-4-yl)-pyridin-2-ylamine]", "values": [{"measurement": "Mean Survival Days", "setting": "[1]; 2.5 mg/kg", "result": 3.2, "unit": "days"}, {"measurement": "Mean Survival Days", "setting": "[1]; 10 mg/kg", "result": 9.4, "unit": "days"}, {"measurement": "MIC", "setting": "[2]", "result": 1.56, "unit": "µg/mL"}, {"measurement": "MIC", "setting": "[3]", "result": 0.39, "unit": "µg/mL"}]}
{"smiles": "c1ccc(OCc2ccc(Cc3cc(-c4cccnc4)on3)cc2)nc1", "note": "[Example 202, 3-(3-(4-(Pyridin-2-yloxymethyl)-benzyl)-isoxazol-5-yl)-pyridine]", "values": [{"measurement": "Mean Survival Days", "setting": "[1]; 2.5 mg/kg", "result": 2.4, "unit": "days"}, {"measurement": "Mean Survival Days", "setting": "[1]; 10 mg/kg", "result": 10.0, "unit": "days"}, {"measurement": "MIC", "setting": "[2]", "result": 0.2, "unit": "µg/mL"}, {"measurement": "MIC", "setting": "[3]", "result": 0.05, "unit": "µg/mL"}]}
